Reference: the supplement of paper PMC10307832

Key:
Experiment in all cases: relative viability (nuclei count vs DMSO), 5 days (fraction); higher = more cells survive
NCI-H647 = system: NCI-H647
Procedure, shortened: (§1)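 Cells from lung cancer lines were seeded into 1536-well plates and, one day later, dosed by pin tool. Treatments were either a single drug or a fixed dose of an anchor drug with five library-drug doses (not always all listed) in √10 steps. After 5 days, nuclei were stained in a one-step fixation (final 0.05% Triton X-100, 1% formaldehyde, 1 ug/ml Hoechst) and counted on 4× images, and relative viability is the treated-to-vehicle nuclei ratio, as the median of duplicate plates.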

EKVX = system: EKVX
Procedure, shortened: as §1

HARA = system: HARA
Procedure, shortened: as §1

SK-MES-1 = system: SK-MES-1
Procedure, shortened: as §1

NCI-H2087 = system: NCI-H2087
Procedure, shortened: as §1

NCI-H1792 = system: NCI-H1792
Procedure, shortened: as §1

LC-2-ad = system: LC-2-ad
Procedure, shortened: as §1

NCI-H1395 = system: NCI-H1395
Procedure, shortened: as §1

NCI-H1734 = system: NCI-H1734
Procedure, shortened: as §1

NCI-H2342 = system: NCI-H2342
Procedure, shortened: as §1

NCI-H2170 = system: NCI-H2170
Procedure, shortened: as §1

SK-LU-1 = system: SK-LU-1
Procedure, shortened: as §1

BEN = system: BEN
Procedure, shortened: as §1

NCI-H2405 = system: NCI-H2405
Procedure, shortened: as §1

NCI-H1437 = system: NCI-H1437
Procedure, shortened: as §1

NCI-H661 = system: NCI-H661
Procedure, shortened: as §1

HCC-366 = system: HCC-366
Procedure, shortened: as §1

NCI-H596 = system: NCI-H596
Procedure, shortened: as §1

NCI-H2228 = system: NCI-H2228
Procedure, shortened: as §1

NCI-H1355 = system: NCI-H1355
Procedure, shortened: as §1

NCI-H2009 = system: NCI-H2009
Procedure, shortened: as §1

HCC-827 = system: HCC-827
Procedure, shortened: as §1

LOU-NH91 = system: LOU-NH91
Procedure, shortened: as §1

Structure (SMILES): CC1(C)CCC(c2ccc(Cl)cc2)=C(CN2CCN(c3ccc(C(=O)NS(=O)(=O)c4ccc(N[C@H](CCN5CCOCC5)CSc5ccccc5)c(S(=O)(=O)C(F)(F)F)c4)cc3)CC2)C1 [Navitoclax] + CC(=O)Nc1cccc(-n2c(=O)n(C3CC3)c(=O)c3c(Nc4ccc(I)cc4F)n(C)c(=O)c(C)c32)c1 [Trametinib] (partner 0.02 µM)
- relative viability (NCI-H647; first compound 0.005 µM): 0.345
- relative viability (NCI-H647; first compound 0.01581 µM): 0.521
- relative viability (NCI-H647; first compound 0.05 µM): 0.331
- relative viability (NCI-H647; first compound 0.1581 µM): 0.534
- relative viability (NCI-H647; first compound 0.5 µM): 0.408
- relative viability (EKVX; first compound 0.005 µM): 0.292
- relative viability (EKVX; first compound 0.01581 µM): 0.457
- relative viability (EKVX; first compound 0.05 µM): 0.334
- relative viability (EKVX; first compound 0.1581 µM): 0.376
- relative viability (EKVX; first compound 0.5 µM): 0.333
- relative viability (HARA; first compound 0.005 µM): 0.44
- relative viability (HARA; first compound 0.01581 µM): 0.638
- relative viability (HARA; first compound 0.05 µM): 0.917
- relative viability (HARA; first compound 0.1581 µM): 0.587
- relative viability (HARA; first compound 0.5 µM): 1.06
- relative viability (SK-MES-1; first compound 0.005 µM): 0.516
- relative viability (SK-MES-1; first compound 0.01581 µM): 0.681
- relative viability (SK-MES-1; first compound 0.05 µM): 0.547
- relative viability (SK-MES-1; first compound 0.1581 µM): 0.591
- relative viability (SK-MES-1; first compound 0.5 µM): 0.654
- relative viability (NCI-H2087; first compound 0.005 µM): 0.177
- relative viability (NCI-H2087; first compound 0.01581 µM): 0.194
- relative viability (NCI-H2087; first compound 0.1581 µM): 0.145
- relative viability (NCI-H2087; first compound 0.5 µM): 0.151
- relative viability (NCI-H1792; first compound 0.005 µM): 0.458
- relative viability (NCI-H1792; first compound 0.01581 µM): 0.631
- relative viability (NCI-H1792; first compound 0.1581 µM): 0.376
- relative viability (NCI-H1792; first compound 0.5 µM): 0.388
- relative viability (LC-2-ad; first compound 0.005 µM): 0.861
- relative viability (LC-2-ad; first compound 0.01581 µM): 0.906
- relative viability (LC-2-ad; first compound 0.05 µM): 0.813
- relative viability (LC-2-ad; first compound 0.1581 µM): 0.902
- relative viability (LC-2-ad; first compound 0.5 µM): 0.823
- relative viability (NCI-H1395; first compound 0.005 µM): 1.03
- relative viability (NCI-H1395; first compound 0.01581 µM): 1.17
- relative viability (NCI-H1395; first compound 0.05 µM): 1.01
- relative viability (NCI-H1395; first compound 0.1581 µM): 1.13
- relative viability (NCI-H1395; first compound 0.5 µM): 1.04
- relative viability (NCI-H1734; first compound 0.005 µM): 0.644
- relative viability (NCI-H1734; first compound 0.01581 µM): 0.776
- relative viability (NCI-H1734; first compound 0.1581 µM): 0.625
- relative viability (NCI-H1734; first compound 0.5 µM): 0.646
- relative viability (NCI-H2342; first compound 0.005 µM): 0.8
- relative viability (NCI-H2342; first compound 0.01581 µM): 0.957
- relative viability (NCI-H2342; first compound 0.05 µM): 0.819
- relative viability (NCI-H2342; first compound 0.1581 µM): 0.653
- relative viability (NCI-H2342; first compound 0.5 µM): 0.967
- relative viability (NCI-H2170; first compound 0.005 µM): 0.926
- relative viability (NCI-H2170; first compound 0.01581 µM): 0.984
- relative viability (NCI-H2170; first compound 0.05 µM): 0.892
- relative viability (NCI-H2170; first compound 0.1581 µM): 0.887
- relative viability (NCI-H2170; first compound 0.5 µM): 0.874
- relative viability (SK-LU-1; first compound 0.005 µM): 0.716
- relative viability (SK-LU-1; first compound 0.01581 µM): 0.57
- relative viability (SK-LU-1; first compound 0.05 µM): 0.296
- relative viability (SK-LU-1; first compound 0.1581 µM): 0.601
- relative viability (SK-LU-1; first compound 0.5 µM): 0.433
- relative viability (BEN; first compound 0.005 µM): 1.07
- relative viability (BEN; first compound 0.01581 µM): 1.18
- relative viability (BEN; first compound 0.05 µM): 0.94
- relative viability (BEN; first compound 0.1581 µM): 1.05
- relative viability (BEN; first compound 0.5 µM): 0.669
- relative viability (NCI-H2405; first compound 0.005 µM): 0.535
- relative viability (NCI-H2405; first compound 0.01581 µM): 0.75
- relative viability (NCI-H2405; first compound 0.05 µM): 0.67
- relative viability (NCI-H2405; first compound 0.1581 µM): 0.596
- relative viability (NCI-H2405; first compound 0.5 µM): 0.661
- relative viability (NCI-H1437; first compound 0.005 µM): 0.476
- relative viability (NCI-H1437; first compound 0.01581 µM): 0.595
- relative viability (NCI-H1437; first compound 0.05 µM): 0.359
- relative viability (NCI-H1437; first compound 0.1581 µM): 0.472
- relative viability (NCI-H1437; first compound 0.5 µM): 0.539
- relative viability (NCI-H661; first compound 0.005 µM): 0.516
- relative viability (NCI-H661; first compound 0.01581 µM): 0.702
- relative viability (NCI-H661; first compound 0.05 µM): 0.551
- relative viability (NCI-H661; first compound 0.1581 µM): 0.533
- relative viability (NCI-H661; first compound 0.5 µM): 0.538
- relative viability (HCC-366; first compound 0.005 µM): 0.319
- relative viability (HCC-366; first compound 0.01581 µM): 0.419
- relative viability (HCC-366; first compound 0.1581 µM): 0.351
- relative viability (HCC-366; first compound 0.5 µM): 0.288
- relative viability (NCI-H596; first compound 0.005 µM): 0.796
- relative viability (NCI-H596; first compound 0.01581 µM): 1.22
- relative viability (NCI-H596; first compound 0.05 µM): 0.693
- relative viability (NCI-H596; first compound 0.1581 µM): 0.79
- relative viability (NCI-H596; first compound 0.5 µM): 0.776
- relative viability (NCI-H2228; first compound 0.005 µM): 0.476
- relative viability (NCI-H2228; first compound 0.01581 µM): 0.802
- relative viability (NCI-H2228; first compound 0.1581 µM): 0.511
- relative viability (NCI-H2228; first compound 0.5 µM): 0.491
- relative viability (NCI-H1355; first compound 0.005 µM): 0.446
- relative viability (NCI-H1355; first compound 0.01581 µM): 0.468
- relative viability (NCI-H1355; first compound 0.05 µM): 0.408
- relative viability (NCI-H1355; first compound 0.1581 µM): 0.431
- relative viability (NCI-H1355; first compound 0.5 µM): 0.458
- relative viability (NCI-H2009; first compound 0.005 µM): 0.324
- relative viability (NCI-H2009; first compound 0.01581 µM): 0.355
- relative viability (NCI-H2009; first compound 0.05 µM): 0.322
- relative viability (NCI-H2009; first compound 0.1581 µM): 0.303
- relative viability (NCI-H2009; first compound 0.5 µM): 0.308
- relative viability (HCC-827; first compound 0.005 µM): 0.528
- relative viability (HCC-827; first compound 0.01581 µM): 0.567
- relative viability (HCC-827; first compound 0.05 µM): 0.446
- relative viability (HCC-827; first compound 0.1581 µM): 0.514
- relative viability (HCC-827; first compound 0.5 µM): 0.55
- relative viability (LOU-NH91; first compound 0.005 µM): 0.776
- relative viability (LOU-NH91; first compound 0.01581 µM): 0.829
- relative viability (LOU-NH91; first compound 0.05 µM): 0.607
- relative viability (LOU-NH91; first compound 0.1581 µM): 0.685
- relative viability (LOU-NH91; first compound 0.5 µM): 0.33
